The values that follow come from paper PMC12160547, “Identification of a Novel Small Molecule STING Agonist Reshaping the Immunomicroenvironment of Pancreatic Ductal Adenocarcinoma” (International Journal of Biological Sciences, 2025).

The conditions of data set [1]: cited from earlier work.
In data set [2] the test system is cGAS-STING pathway. Details: method as in PMID 31036082. Conditions: cited from earlier work.
Data set [3] deals with cGAS-STING pathway. Kind of data set: cGAS-STING pathway, IFN-β and ISG readout in pancreatic cancer organoids. The data set is classed as cell-based, human. Conditions: TBK1 inhibitor added to culture medium. On the procedure: Tumor tissues or cells were thoroughly lysed in RIPA buffer containing protease and phosphatase inhibitors. The lysates were then centrifuged to collect the supernatant. Proteins were separated by electrophoresis in MOPS buffer and subsequently transferred onto a PVDF membrane. After blocking, the membrane was sequentially incubated with the primary antibody, secondary antibody, and chemiluminescent substrate (ECL) for imaging.
(§1) RNA from tumor tissues or cells was extracted using the SteadyPure Universal RNA Extraction Kit (Accurate Biology) and reverse transcribed into cDNA with the Evo M-MLV Reverse Transcription Kit (Accurate Biology). Relative RNA expression levels were quantified using 2X Universal SYBR Green Fast qPCR Mix (Abclonal), and the results were recorded on the qTOWER®3 84 Real-Time PCR system.
(§2) Multiplex cytokine detection was performed using Luminex cytokine bead array technology provided by WayenBio, Shanghai. In the mouse tumor model, levels of multiple cytokines were simultaneously measured and normalized to tumor weight. For the quantification of specific cytokines, such as IL-6 and IFN-β, enzyme-linked immunosorbent assay (ELISA) kits from Abclonal were used. The assays were conducted according to the manufacturer's instructions.

The test system of data set [4] is subcutaneous pancreatic tumor. Kind of data set: Subcutaneous pancreatic tumor model. Conditions: co-administered with D166. The data set is classed as in vivo, C57BL/6 mice. On the procedure: C57BL/6 mice were obtained from Phenotek (Shanghai) and randomly assigned to groups, with a minimum of six mice per group. For the subcutaneous tumor model, approximately 5 × 10^5 tumor cells were suspended in 150 μL PBS and injected into the left flank of the mice. Tumor size was measured every four days starting from day 7 post-injection. On days 9, 12, and 15, the mice were administered three different concentrations of the drug via peritumoral injection, while the Control group received only the solvent. The mice were euthanized on day 25, and tumors were excised, weighed, and further analyzed.
as §2

The target of data set [5] is T1, m-STING (Mus musculus, UniProt Q3TBT3).
T1 construct: Raw-lucia Fold (50 μM); endogenous in cells; host or cells: RAW-Lucia
T1 sequence (Q3TBT3 1-378): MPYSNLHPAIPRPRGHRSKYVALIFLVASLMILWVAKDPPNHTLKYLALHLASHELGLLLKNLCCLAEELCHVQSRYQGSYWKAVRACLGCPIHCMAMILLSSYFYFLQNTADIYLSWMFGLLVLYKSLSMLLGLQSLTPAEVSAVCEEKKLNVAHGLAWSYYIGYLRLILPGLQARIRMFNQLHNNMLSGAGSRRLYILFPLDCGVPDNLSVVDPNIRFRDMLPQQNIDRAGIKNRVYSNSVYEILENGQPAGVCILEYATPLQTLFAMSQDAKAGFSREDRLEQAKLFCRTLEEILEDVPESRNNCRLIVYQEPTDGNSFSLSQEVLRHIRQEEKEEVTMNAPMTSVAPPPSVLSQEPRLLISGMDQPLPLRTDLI
Kind of data set: Raw-lucia reporter activation fold. It counts as cell-based.

The test system of data set [6] is STING signaling. Description: Relative gene expression in RAW-Lucia cells (RT-qPCR). It counts as cell-based, mouse. On the procedure:
as §1
Background: Quantitative PCR measures a nucleic acid by following its amplification.

Data set [7] is described as follows: Pharmacokinetic parameters, i.v. and p.o. It counts as in vivo.
Data set [8] has as its target T2, h-STING (Homo sapiens, UniProt Q86WV6, G230A/R293Q/R71H).
T2 construct: THP1-Dual Fold (10 μM); endogenous in cells; host or cells: THP1-Dual
Description: THP1-Dual reporter activation fold. The data set is classed as cell-based.

T2 sequence (Q86WV6 whole entry R71H/G230A/R293Q): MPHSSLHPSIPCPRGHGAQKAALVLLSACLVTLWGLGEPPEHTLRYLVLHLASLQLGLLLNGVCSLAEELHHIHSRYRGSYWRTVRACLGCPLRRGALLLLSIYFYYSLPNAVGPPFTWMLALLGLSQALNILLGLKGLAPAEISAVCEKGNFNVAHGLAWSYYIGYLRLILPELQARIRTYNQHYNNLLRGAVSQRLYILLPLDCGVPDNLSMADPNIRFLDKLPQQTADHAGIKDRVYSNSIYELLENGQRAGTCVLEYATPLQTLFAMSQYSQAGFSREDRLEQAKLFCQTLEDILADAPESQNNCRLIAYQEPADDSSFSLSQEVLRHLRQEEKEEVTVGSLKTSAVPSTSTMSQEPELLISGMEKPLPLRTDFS

As for `Nc1ncnc2c1ncn2[C@@H]1O[C@@H]2COP(=O)([S-])O[C@@H]3[C@H](O)[C@@H](COP([O-])(=S)O[C@H]2[C@H]1O)O[C@H]3n1cnc2c(N)ncnc21.[Na+].[Na+]` (stereo partly drawn) [ADU-S100], in data set [1], the “reason for termination in phase I clinical trials” value was “poor drug stability and systemic toxicity”.

`Cc1ccc2c(=O)c3cccc(CC(=O)O)c3oc2c1C` [DMXAA, 5,6-Dimethylxanthenone-4-acetic acid]: the “species in which the cGAS-STING pathway is activated” value in data set [2] is recorded as “only in mice”.

Regarding `Nc1nc2c(ncn2[C@@H]2O[C@@H]3CO[P@@](=O)(S)O[C@H]4[C@H](F)[C@H](n5cnc6c(N)ncnc65)O[C@@H]4CO[P@@](=O)(S)O[C@@H]2[C@@H]3F)c(=O)[nH]1` [MK-1454], the “efficacy in clinical study” value in data set [1] (single-agent treatment group) is on record as “limited efficacy as a monotherapy”.

`O=C(NCCCNc1nc(Nc2cccc(CN3CCOCC3)c2)ncc1C1CC1)C1CCC1` [MRT67037, reference compound]: the “effect on D166-induced ISG activation in organoids” value in data set [3] is “rescued the D166-induced ISG activation”. Also, the “effect on the tumor-killing effect of D166” value in data set [4] was “counteracted the tumor-killing effect of D166”.

For the molecule `COc1cc2cc(C(=O)CCC(=O)O)sc2cc1OC` [MSA-2, reference compound], the “Raw-lucia Fold (50 μM)” value in data set [5] is reported as 22.59 Fold. Further, in data set [6], the “Relative expression (Cxcl10/actin)” value worked out at 179.40 ± 2.58 and the “Relative expression (Ifnb/actin)” value was 125.70 ± 3.06. In data set [7] (i.v., average of three runs), this molecule yielded an AUCInf of 1372 ng·h/mL, a CL of 12.3 mL/min/kg, an MRTInf of 15.6 min and a T1/2 of 39.6 min. In data set [7] (i.v., average of three runs), the Vz is recorded as 0.70 L/kg. In data set [7] (p.o., average of three runs), this molecule gave an AUCInf of 2852 ng·h/mL, an MRTInf of 53.4 min and a T1/2 of 65.4 min. The F in data set [7] (p.o., oral bioavailability) amounted to 69.3%. Moreover, in data set [8], the “THP1-Dual Fold (10 μM)” value amounted to 43.09 Fold.
